This assay addresses T1, HIV-1 protease (HIV-1 M:B_HXB2R, UniProt P04585).
T1 construct: cut from Gag-Pol polyprotein
The assay can be described thus: HIV protease inhibition assay (HPLC method). The settings on record: pH 5.5, 30° C., 1 hr. The format is biochemical. The procedure:
The Ki values in TABLE 1 were determined using the assay conditions described below under HIV Protease Inhibition Assay (HPLC Method). The Ki values are indicated as follows: +++=<10 nM; ++=10 nM to 1 μM; +=>[…].
HIV PROTEASE INHIBITION ASSAY (HPLC METHOD)
Protease: Inclusion bodies of E. coli harboring plasmid T1718R with a synthetic gene coding for a single-chain tethered dimer of HIV protease were prepared as described in Cheng et al. Proc. Natl. Acad. Sci. USA 1990, 87, 9660. Active protease was prepared as described therein by extraction with 67% acetic acid, dilution 33-fold with water, dialysis against water and then against a "refolding buffer" comprising 20 mM MES, 1 mM dithiothreitol and 10% glycerol, pH 5.5. Protease was stored as a stock preparation at 10 uM in refolding buffer.
Substrate: Peptide of the sequence aminobenzoyl-Ala-Thr-His-Gln-Val-Tyr-Phe(NO2)-Val-Arg-Lys-Ala containing p-nitrophenylalanine (Phe(NO2)), was prepared by solid phase synthesis as previously described (Cheng et al. Proc. Natl. Acad. Sci. USA 1990, 87, 9660). Stock solutions of 2 mM substrate were prepared in DMSO.
Inhibitory compounds were dissolved in sufficient DMSO to make 3 mM stock solutions. All further dilutions were prepared in "assay buffer" comprising 1M NaCl, 50 mM MES, pH 5.5, 1 mM EDTA, 1 mM DTT and 20% glycerol.
Enzyme reaction: To a 2 mL screw-cap centrifuge tube were added 50 uL protease (final concentration 0.25 nM) and 0.1 mL inhibitor compound (final concentration 0.1-12,500 nM). After 15 min preincubation at room temperature, the reaction was started by the addition of 0.05 mL substrate (final concentration 5 uM). Incubation was carried out at 30° C. for 1 hr. The reaction was stopped by addition of 1 mL of 0.1M ammonium hydroxide solution.
HPLC measurement of product formation: The product (aminobenzoyl-Ala-Thr-His-Gln-Val-Tyr) was separated from substrate on a Pharmacia MonoQ anion exchange column. The injection volume was 0.2 mL. The mobile phases comprised: solution A (20 mM tris HCl, pH 9.0, 0.02% sodium azide, 10% acetonitrile), and solution B (20 mM tris HCl, pH 9.0, 0.02% sodium azide, 0.5M ammonium formate, 10% acetonitrile). The mobile phases were pumped at 1 mL/min, with a gradient from 0 to 30% B in 5 min, 100% B for 4 min to wash the column, and a re-equilibration wash with A for 4 min. The retention time of the product was 3.6 min. Detection with a Shimadzu model RF535 fluorescence monitor was at 330 nm (excitation) and 430 nm (emission). The Ki was calculated from the formula Ki=I/(((Km+S-FA*S)/(FA*Km))-1) where I=inhibitor concentration, S=substrate concentration, FA=fractional activity=cm peak height with inhibitor/cm peak height without inhibitor and Km=Michaelis constant=20 uM.

Some results are limits rather than exact numbers.

A word on the Ki: it is a dissociation constant, usually derived from enzyme kinetics or from competition with a known ligand.

Consider `O=P12O[C@H]([C@@H](O)[C@@H](Cc3ccccc3)N1Cc1ccc(CO)cc1)[C@@H](Cc1ccccc1)N2Cc1ccc(CO)cc1` [Example 5C, (3-endo,4-endo,6-exo)-2,7-Bis(4-(hydroxymethyl)phenylmethyl)-3,6-bis(phenylmethyl)-8-oxa-2,7-diaza-1-phosphabicyclo[3.2.1]octan-4-ol 1-oxide], for which the Ki was less than 10 nM.

For the origin of these results see patent publication US5543517A, “Substituted bicyclic phosphoramides and derivatives thereof” (The DuPont Merck Pharmaceutical Company, priority 1994, dated 1996).
